Bounds are passed on as bounds.

T1 sequence (O75417 1-899): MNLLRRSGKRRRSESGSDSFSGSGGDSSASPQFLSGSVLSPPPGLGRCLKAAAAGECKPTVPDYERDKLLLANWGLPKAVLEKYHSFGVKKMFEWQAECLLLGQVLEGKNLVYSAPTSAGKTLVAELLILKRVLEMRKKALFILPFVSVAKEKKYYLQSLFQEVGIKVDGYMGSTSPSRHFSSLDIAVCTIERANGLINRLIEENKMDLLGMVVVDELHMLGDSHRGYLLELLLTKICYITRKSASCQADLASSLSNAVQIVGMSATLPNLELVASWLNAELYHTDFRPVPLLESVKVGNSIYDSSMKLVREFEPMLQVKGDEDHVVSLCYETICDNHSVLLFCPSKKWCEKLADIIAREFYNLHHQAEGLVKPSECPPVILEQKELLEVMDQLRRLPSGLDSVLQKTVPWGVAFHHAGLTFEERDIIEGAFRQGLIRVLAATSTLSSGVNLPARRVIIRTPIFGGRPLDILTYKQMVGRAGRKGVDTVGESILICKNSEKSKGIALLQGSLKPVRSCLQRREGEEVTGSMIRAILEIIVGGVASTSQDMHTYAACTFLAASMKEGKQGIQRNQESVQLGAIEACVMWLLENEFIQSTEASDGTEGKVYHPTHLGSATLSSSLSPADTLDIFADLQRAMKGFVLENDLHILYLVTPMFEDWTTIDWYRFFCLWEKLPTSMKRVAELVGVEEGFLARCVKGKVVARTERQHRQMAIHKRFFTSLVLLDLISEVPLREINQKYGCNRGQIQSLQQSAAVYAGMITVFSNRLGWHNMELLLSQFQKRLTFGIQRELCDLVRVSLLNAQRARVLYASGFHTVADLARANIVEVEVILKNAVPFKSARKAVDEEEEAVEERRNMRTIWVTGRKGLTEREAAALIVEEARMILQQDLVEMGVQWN

The first assay addresses T1, Pol theta (1-899) (Homo sapiens, UniProt O75417).
T1 construct: Pol theta (1-899) (5 nM) in assay buffer
The assay can be described thus: Pol theta ATPase activity, NADH oxidation-coupled enzymatic assay (ATPase NADH coupling: Standard Screening: hPolQ). The note with it: Pol theta (1-899) 5 nM, NADH oxidation-coupled ATPase assay; compounds of Table 3. Type of assay: biochemical. In short, it runs like this:
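NADH-coupled ATPase readout: 5 nM Pol theta (1-899) preincubated 15 min with 10-point compound series in Tris pH 7.80, KCl, MgCl2, DTT, BSA, Tween, glycerol, then 100 μM ATP, 300 nM 50-mer poly-dT ssDNA, NADH, PEP, LDH and PK added (stock levels). A340 followed 60 min; slopes fit four-parameter for IC50.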
By IC50 is commonly meant the midpoint of a concentration-inhibition curve. High values mean weaker potency in that assay, low ones greater potency in that assay. Consider `COc1nnc(NC(=O)c2cnc(C)cc2-c2cnn(-c3ccccc3)c2C)s1` [Example 456, N-(5-methoxy-1,3,4-thiadiazol-2-yl)-6-methyl-4-(5-methyl-1-phenyl-1H-pyrazol-4-yl)pyridine-3-carboxamide], for which the IC50 was in the range of 1000 to 10000 nM.

`COc1nnc(NC(=O)c2cnc(C)cc2-c2ccccc2C(C)C)s1` [Example 392, N-(5-methoxy-1,3,4-thiadiazol-2-yl)-6-methyl-4-[2-(propan-2-yl)phenyl]pyridine-3-carboxamide] gave an IC50 of 1000 to 10000 nM.

Turning to `COc1nnc(NC(=O)c2cnc(C)cc2-c2cccc(OC)c2C#N)s1` [Example 411, 4-(2-cyano-3-methoxyphenyl)-N-(5-methoxy-1,3,4-thiadiazol-2-yl)-6-methylpyridine-3-carboxamide], the IC50 is 1000 to 10000 nM.

For the compound `COc1nnc(NC(=O)c2cnc(C)cc2-c2cncc(C(=O)N(C)C)c2)s1` [Example 483, N3′-(5-methoxy-1,3,4-thiadiazol-2-yl)-N5,N5,6′-trimethyl-[3,4′-bipyridine]-3′,5-dicarboxamide], the IC50 lay in the range of 1000 to 10000 nM.

Compound `COc1nnc(NC(=O)c2cnc(C)cc2-c2cccc(O)c2)s1` [Example 452, 4-(3-hydroxyphenyl)-N-(5-methoxy-1,3,4-thiadiazol-2-yl)-6-methylpyridine-3-carboxamide] registered a half-inhibitory concentration (IC50) of 1000 to 10000 nM.

The compound `COc1nnc(NC(=O)c2cnc(C)cc2-c2ccc3[nH]ncc3c2)s1` [Example 487, 4-(1H-indazol-5-yl)-N-(5-methoxy-1,3,4-thiadiazol-2-yl)-6-methylnicotin amide] displayed an IC50 of 500 to 1000 nM.

Regarding `COc1nnc(NC(=O)c2cnc(C)cc2-c2cc[nH]c(=O)c2)s1` [Example 364, N-(5-methoxy-1,3,4-thiadiazol-2-yl)-6-methyl-2′-oxo-1′,2′-dihydro-[4,4′-bipyridine]-3-carboxamide], the IC50 was in the range of 1000 to 10000 nM.

On to `COc1cnc(Cl)cc1-c1cc(C)ncc1C(=O)Nc1nnc(O[C@@H]2CCCN([C@@H]3CCOC3)C2)s1` [Example 264, 2′-chloro-5′-methoxy-6-methyl-N-(5-(((R)-1-((R)-tetrahydrofuran-3-yl)piperidin-3-yl)oxy)-1,3,4-thiadiazol-2-yl)-[4,4′-bipyridine]-3-carboxamide], for which the IC50 was not above 200 nM.

For `COc1nnc(NC(=O)c2cnc(C)cc2-c2cc(Br)c([S@+](C)[O-])cc2OC)s1` (single isomer, unassigned) [Example 322], the IC50 was 500 to 1000 nM.

Compound `COc1nnc(NC(=O)c2cnc(C)cc2-c2ccc(C#N)cc2)s1` [Example 365, 4-(4-cyanophenyl)-N-(5-methoxy-1,3,4-thiadiazol-2-yl)-6-methylpyridine-3-carboxamide] had an IC50 of 1000 to 10000 nM.

As to `COc1nnc(NC(=O)c2cnc(C)cc2-c2cnn(Cc3ccccc3)c2)s1` [Example 468, 4-(1-benzyl-1H-pyrazol-4-yl)-N-(5-methoxy-1,3,4-thiadiazol-2-yl)-6-methylnicotinamide], the IC50 is 1000 to 10000 nM.

`COc1nnc(NC(=O)c2cnc(C)cc2-c2cccc(-c3ccn(C)n3)c2)s1` [Example 453, N-(5-methoxy-1,3,4-thiadiazol-2-yl)-6-methyl-4-[3-(1-methyl-1H-pyrazol-3-yl)phenyl]pyridine-3-carboxamide] yielded a concentration for half-maximal inhibition (IC50) of 1000 to 10000 nM.

Regarding `COc1nnc(NC(=O)c2cnc(C)cc2-c2cc(C(F)(F)F)cc(C(F)(F)F)c2)s1` [Example 333, 4-[3,5-bis(trifluoromethyl)phenyl]-N-(5-methoxy-1,3,4-thiadiazol-2-yl)-6-methylpyridine-3-carboxamide], the concentration for half-maximal inhibition (IC50) is 1000 to 10000 nM.

The compound `COc1nnc(NC(=O)c2cc(C#N)ncc2-c2cc(Cl)ncc2OC)s1` [Example 290, 2′-chloro-6-cyano-5′-methoxy-N-(5-methoxy-1,3,4-thiadiazol-2-yl)-[3,4′-bipyridine]-4-carboxamide] displayed an IC50 of 200 to 500 nM.

Compound `COc1nnc(NC(=O)c2cnc(C)cc2-c2cccc3[nH]ncc23)s1` [Example 335, 4-(1H-indazol-4-yl)-N-(5-methoxy-1,3,4-thiadiazol-2-yl)-6-methylnicotinamide] showed an IC50 of 500 to 1000 nM.

For `COc1ccc(-c2cc(C)ncc2C(=O)Nc2nnc(OC)s2)cn1` [Example 407, 6-methoxy-N-(5-methoxy-1,3,4-thiadiazol-2-yl)-6′-methyl-[3,4′-bipyridine]-3′-carboxamide], the half-maximal inhibitory concentration (IC50) was in the range of 1000 to 10000 nM.

In turn, `COc1nnc(NC(=O)c2cnc(C)cc2-c2cccc(C(=O)O)c2)s1` [Example 326, 3-(5-((5-methoxy-1,3,4-thiadiazol-2-yl)carbamoyl)-2-methylpyridin-4-yl)benzoic acid] displayed a 50% inhibitory concentration (IC50) of 1000 to 10000 nM.

`COc1nnc(NC(=O)c2cnc(C)cc2-c2cc(Cl)cc3c2OCCN3)s1` [Example 320, 4-(6-chloro-3,4-dihydro-2H-benzo[b][1,4]oxazin-8-yl)-N-(5-methoxy-1,3,4-thiadiazol-2-yl)-6-methylnicotinamide] displayed an IC50 not above 200 nM.

With `CCCCc1ccc(-c2cc(C)ncc2C(=O)Nc2nnc(OC)s2)cc1` [Example 484, 4-(4-butylphenyl)-N-(5-methoxy-1,3,4-thiadiazol-2-yl)-6-methylpyridine-3-carboxamide], the 50% inhibitory concentration (IC50) was in the range of 1000 to 10000 nM.

For the compound `COc1nnc(NC(=O)c2cnc(C)cc2-c2cnn(-c3ccccc3)c2)s1` [Example 460, N-(5-methoxy-1,3,4-thiadiazol-2-yl)-6-methyl-4-(1-phenyl-1H-pyrazol-4-yl)nicotinamide], the IC50 fell in the range of 1000 to 10000 nM.

Still in this assay, the particulars now being: Table 4; Pol theta (1-899) 5 nM, ATP, dT50 ssDNA.
`COc1nnc(NC(=O)c2cnc(C)cc2-c2cc([C@H](C)O)ncc2OC)s1` (single isomer, unassigned) [Example 68] had an IC50 of 1000 to 10000 nM.

Compound `COc1nnc(NC(=O)c2cnc(C)cc2-c2c(Cl)cccc2OC(F)F)s1` [Example 55, 4-(2-chloro-6-(difluoromethoxy)phenyl)-N-(5-methoxy-1,3,4-thiadiazol-2-yl)-6-methylnicotinamide] displayed a 50% inhibitory concentration (IC50) of 200 to 500 nM.

In the case of `COc1cnc(Cl)cc1-c1cc(C)ncc1C(=O)Nc1nnc(OCC(C)(C)F)s1` [Example 19, 2′-chloro-N-(5-(2-fluoro-2-methylpropoxy)-1,3,4-thiadiazol-2-yl)-5′-methoxy-6-methyl-(4,4′-bipyridine)-3-carboxamide], the IC50 was not above 200 nM.

As to `CCc1cc(-c2cc(C)ncc2C(=O)Nc2nnc(OC)s2)c(OC)cn1` [Example 44, 2′-ethyl-5′-methoxy-N-(5-methoxy-1,3,4-thiadiazol-2-yl)-6-methyl-(4,4′-bipyridine)-3-carboxamide], the IC50 is not above 200 nM.

In the case of `CCOc1cnc(Cl)cc1-c1cc(C)ncc1C(=O)Nc1nnc(OC)s1` [Example 42, 2′-chloro-5′-ethoxy-N-(5-methoxy-1,3,4-thiadiazol-2-yl)-6-methyl-(4,4′-bipyridine)-3-carboxamide], the IC50 was in the range of 200 to 500 nM.

`COc1cnc(Cl)cc1-c1cc(C)ncc1C(=O)Nc1nnc(O[C@@H]2CC[C@H](O)C2)s1` (single isomer, unassigned) [Example 59] yielded an IC50 not above 200 nM.

The same assay, now with this note: Table 5; Pol theta (1-899) 5 nM, ATP, dT50 ssDNA.
`COc1cnc(Cl)cc1-c1cc(OC2CC2)ncc1C(=O)Nc1nnc(O[C@@H]2CCOC2)s1` [Example 193, (R)-2′-chloro-6-cyclopropoxy-5′-methoxy-N-(5-((tetrahydrofuran-3-yl)oxy)-1,3,4-thiadiazol-2-yl)-(4,4′-bipyridine)-3-carboxamide]: the half-inhibitory concentration (IC50) fell in the range of 500 to 1000 nM.

Turning to `COc1nnc(NC(=O)c2cnc(OC3CC3)cc2-c2cc(Cl)ncc2OC)s1` [Example 196, 2′-chloro-6-cyclopropoxy-5′-methoxy-N-(5-methoxy-1,3,4-thiadiazol-2-yl)-(4,4′-bipyridine)-3-carboxamide], the IC50 fell in the range of 500 to 1000 nM.

Compound `COc1cnc(C)c(F)c1-c1cc(C)ncc1C(=O)Nc1nnc(O[C@H]2CC[C@@](C)(O)CC2)s1` (single isomer, unassigned) [Example 221, 3′-fluoro-N-(5-(((1s,4s)-4-hydroxy-4-methylcyclohexyl)oxy)-1,3,4-thiadiazol-2-yl)-5′-methoxy-2′,6-dimethyl-(4,4′-bipyridine)-3-carboxamide] gave a half-inhibitory concentration (IC50) not above 200 nM.

As to `COc1cnc(Cl)cc1-c1cc(C)ncc1C(=O)Nc1nnc(O[C@@H]2COC(C)(C)C2)s1` (single isomer, unassigned) [Example 130], the half-inhibitory concentration (IC50) was not above 200 nM.

Turning to `COc1cnc(Cl)cc1-c1cc(C)ncc1C(=O)Nc1nnc(O[C@H]2CCC[C@@H](OC)C2)s1` (single isomer, unassigned) [Example 145], the IC50 is not above 200 nM.

The compound `COc1cnc(Br)cc1-c1cc(C)ncc1C(=O)Nc1nnc(O[C@@H]2COC3(CC3)C2)s1` (single isomer, unassigned) [Example 226] had a half-maximal inhibitory concentration (IC50) not above 200 nM.

`COc1cnc(Cl)cc1-c1cc(C)ncc1C(=O)Nc1nnc(O[C@H]2CCC[C@H](O)C2)s1` (single isomer, unassigned) [Example 161]: the IC50 was not above 200 nM.

As to `COc1cnc(Cl)c(F)c1-c1cc(C)ncc1C(=O)Nc1nnc(O[C@@H]2CCOC2)s1` [Example 80, 2′-chloro-3′-fluoro-5′-methoxy-6-methyl-N-(5-(((R)-tetrahydrofuran-3-yl)oxy)-1,3,4-thiadiazol-2-yl)-(4,4′-bipyridine)-3-carboxamide], the IC50 is not above 200 nM.

In turn, `COc1cnc(Cl)cc1-c1cc(C)ncc1C(=O)Nc1nnc(O[C@@H]2COC3(CCCC3)C2)s1` (single isomer, unassigned) [Example 229] gave an IC50 not above 200 nM.

In turn, `COc1cnc(Br)cc1-c1cc(C)ncc1C(=O)Nc1nnc(O[C@H]2CCOC2)s1` [Example 122, (S)-2′-bromo-5′-methoxy-6-methyl-N-(5-((tetrahydrofuran-3-yl)oxy)-1,3,4-thiadiazol-2-yl)-(4,4′-bipyridine)-3-carboxamide] yielded a half-maximal inhibitory concentration (IC50) not above 200 nM.

The values are drawn from patent publication US20240287080A1 (IDEAYA Biosciences Inc., priority 2021, published 2024).
